In brackets after ≈: the same amount, converted by molar mass. Like-named read-outs stand apart in the source and are kept apart here. Some results are limits rather than exact numbers.

One assay concerns P. aeruginosa. Briefly: Biofilm growth assay (spreading biofilm on semi-solid agar). The class given is cell-based. Particulars: for IC85: Pseudomonas aeruginosa. The text has this: (§1) "Biofilm Growth Assay" refers to an assay performed on semi-solid agar surface where the bacteria collectively move out from an inoculation point. To those skilled in the art, the act of bacteria collectively moving out from an inoculation point on a semi-solid surface may be referred to as swarming or a spreading biofilm. (Anderson, et al Microbiology, 2003, 149, 37-46; Daniels, et al. FEMS Microbiology Reviews, 2004, 28, 261-289). The procedure to perform this assay is described in detail in the Examples. This type of surface motility by bacteria has been reported in the literature by those skilled in the art.
(§2) The biofilm growth assay was carried out to measure swarming or biofilm spreading on semi-solid agar media in round plates (for example, 100 × 15 mm), also referred to as Petri dishes. For E. coli, the plates contained LB medium with 0.6% agar and 0.5% glucose. P. aeruginosa plates were made with M8 agar supplemented with 0.2% glucose, 100 µM CaCl2, 1 mM MgSO4, and 0.5% Casamino acids. The agar plates of this assay consisted of 0.4% to 0.7% agar (Bacto or Noble agar), although other media may also be used as described in the literature and known to those skilled in the art. Test compounds at the desired concentration were added to the cooled, autoclaved media. Portions of the media were then poured into the plates (20 mL/plate), and the plates allowed to dry at room temperature for approximately 3 to 4 hours. Alternatively, however, plates may be dried in a laminar flow hood for approximately fifteen to twenty minutes. Overnight cultures were grown in a 37°C shaker in LB (E. coli) or TSB (P. aeruginosa). Plates were inoculated by placing 5 µL of the appropriate overnight culture in the centers of the plates. The plates then were incubated overnight at 37°C. The area of the zone of spreading bacteria was then measured and replicates are averaged. Percent inhibition was calculated as 100 × (area without compound - area with compound)/(area without compound). An active compound was considered that which reduces the area of the spreading biofilm compared to negative controls by greater than or equal to 85%. The values shown in Table 1 are the concentrations of compounds (µg/ml) tested in the biofilm growth assay that reduce the area of the spreading biofilm compared to negative controls by greater than or equal to 85% unless noted differently in Table 1. A > ("greater than" symbol) as used in Table 1 is well understood to those skilled in the art as an indication that the listed concentration was not effective at this concentration.
(§3) All of the compounds shown in Tables 2, 3, 4, and 5, below, were prepared semi-synthetically from oleanolic acid, except for Compounds 2 and 3. Compound 2 was prepared from ursolic acid. Compound 3 was prepared from hederagenin, but could also be prepared from an oleanolic acid analog with a hydroxyl at C23 or C24. These compounds were tested in the spreading biofilm assay according to the methods detailed in Example I, above. The values shown in Tables 2, 3, 4, and 5 are the concentrations of compounds tested in the biofilm growth assay that reduce the area of the spreading biofilm compared to negative controls by greater than or equal to 85%. Table 2. Compound 1 and its Analogs and their inhibitory concentrations in the biofilm growth assay as detailed in Example I, above

In another assay the test system is E. coli. Described as above. The class given is cell-based. The settings on record: Escherichia coli, read-out: E. coli.
Excerpt: as §1, §2, §3

The mark [1] stands for this setting: Table 3, concentration that reduces the area of the spreading biofilm by >= 85%, read-out: P. aeruginosa.
Setting [2] is: Table 3, concentration that reduces the area of the spreading biofilm by >= 85%.
[3] abbreviates: Table 1, concentration that reduces the area of the spreading biofilm vs negative controls by >= 85%, > means not effective at this concentration, read-out: P. aeruginosa.
The mark [4] stands for this setting: Table 1, concentration that reduces the area of the spreading biofilm vs negative controls by >= 85%, > means not effective at this concentration.
The mark [5] stands for this setting: Table 4, concentration that reduces the area of the spreading biofilm by >= 85%, read-out: P. aeruginosa.
Where [6] appears, read: Table 4, concentration that reduces the area of the spreading biofilm by >= 85%.

Consider `CCC1=C2[C@@H]3CC(C)(C)CC[C@]3(C(=O)O)CC[C@@]2(C)[C@]2(C)CC[C@H]3C(C)(C)c4n[nH]c(N)c4C[C@]3(C)C2C1` (stereo partly drawn) [Compound 14, (4aS,6aS,6bR,8aR,13aR,15bS)-12-Amino-15-ethyl-2,2,6a,6b,9,9,13a-heptamethyl-2,3,4,4a,5,6,6a,6b,7,8,8a,9,11,13,13a,13b,14,15b-octadecahydro-1H-chryseno[1,2-f]indazole-4a-carboxylic acid], for which the IC85 amounted to 0.5 µg/mL (≈ 0.958 µM) with P. aeruginosa (setting [1]) and 2 µg/mL (≈ 3.83 µM) in the assay with E. coli (setting [2]).
The matching figures for `CC1(C)CC[C@]2(C(=O)O)CC[C@]3(C)C(=C(c4ccc(N5CCCC5)nc4)CC4[C@@]5(C)Cc6c(n[nH]c6N)C(C)(C)C5CC[C@]43C)C2C1` (stereo partly drawn) [Compound 45, (4aS,6aS,6bR,13aR)-12-Amino-2,2,6a,6b,9,9,13a-heptamethyl-15-(6-(pyrrolidin-1-yl)pyridin-3-yl)-2,3,4,4a,5,6,6a,6b,7,8,8a,9,11,13,13a,13b,14,15b-octadecahydro-1H-chryseno[1,2-f]indazole-4a-carboxylic acid]: 0.5 µg/mL (≈ 0.781 µM) and 1 µg/mL (≈ 1.56 µM).
In the same order, the values of `CC1(C)CC[C@]2(C(=O)O)CC[C@]3(C)C(=C(c4cccc(O)c4)CC4[C@@]5(C)Cc6c(n[nH]c6N)C(C)(C)C5CC[C@]43C)C2C1` (stereo partly drawn) [Compound 16, (4aS,6aS,6bR,13aR)-12-Amino-15-(3-hydroxyphenyl)-2,2,6a,6b,9,9,13a-heptamethyl-2,3,4,4a,5,6,6a,6b,7,8,8a,9,11,13,13a,13b,14,15b-octadecahydro-1H-chryseno[1,2-f]indazole-4a-carboxylic acid] are 1 µg/mL (≈ 1.71 µM) and 2 µg/mL (≈ 3.41 µM).
In the same order, the values of `CC1(C)CC[C@]2(C(=O)O)CC[C@]3(C)C(=C(c4cccc(N)c4)CC4[C@@]5(C)Cc6c(n[nH]c6N)C(C)(C)[C@@H]5CC[C@]43C)[C@@H]2C1` (stereo partly drawn) [Compound 15, (4aS,6aS,6bR,8aR,13aR,15bS)-12-Amino-15-(3-aminophenyl)-2,2,6a,6b,9,9,13a-heptamethyl-2,3,4,4a,5,6,6a,6b,7,8,8a,9,11,13,13a,13b,14,15b-octadecahydro-1H-chryseno[1,2-f]indazole-4a-carboxylic acid] are 0.25 µg/mL (≈ 0.427 µM) and 1 µg/mL (≈ 1.71 µM).
As for `C=C(C)[C@@H]1CC[C@]2(CO)CC[C@]3(C)[C@H](CC[C@@H]4[C@@]5(C)CC[C@H](O)C(C)(C)[C@@H]5CC[C@]43C)[C@@H]12` [Betulin, reference compound], the figures for the IC85 in the assay with P. aeruginosa (setting [3]) and in the assay on E. coli (setting [4]) were 16 µg/mL (≈ 36.1 µM) and above 16 µg/mL, respectively.
Turning to `CC1(C)CC[C@]2(C(=O)O)CC[C@]3(C)C(=C(c4ccc(N)nc4)CC4[C@@]5(C)Cc6c(n[nH]c6N)C(C)(C)[C@@H]5CC[C@]43C)[C@@H]2C1` (stereo partly drawn) [Compound 41, (4aS,6aS,6bR,8aR,13aR,15bS)-12-Amino-15-(6-aminopyridin-3-yl)-2,2,6a,6b,9,9,13a-heptamethyl-2,3,4,4a,5,6,6a,6b,7,8,8a,9,11,13,13a,13b,14,15b-octadecahydro-1H-chryseno[1,2-f]indazole-4a-carboxylic acid], the results for the IC85 in the assay with P. aeruginosa (setting [1]) and with E. coli (setting [2]) were 1 µg/mL (≈ 1.71 µM) and 2 µg/mL (≈ 3.41 µM), respectively.
`CC1(C)CC[C@]2(C(=O)O)CC[C@]3(C)C(=C(c4coc(CN5CCNCC5)c4)CC4[C@@]5(C)Cc6c(n[nH]c6N)C(C)(C)C5CC[C@]43C)C2C1` (stereo partly drawn) [Compound 39, (4aS,6aS,6bR,13aR)-12-Amino-2,2,6a,6b,9,9,13a-heptamethyl-15-(5-(piperazin-1-ylmethyl)furan-3-yl)-2,3,4,4a,5,6,6a,6b,7,8,8a,9,11,13,13a,13b,14,15b-octadecahydro-1H-chryseno[1,2-f]indazole-4a-carboxylic acid]: the results for the IC85 in the assay with P. aeruginosa (setting [1]) and in the assay with E. coli (setting [2]) were 1 µg/mL (≈ 1.52 µM) and 2 µg/mL (≈ 3.04 µM), respectively.
`CC1(C)CC[C@]2(C(=O)O)CC[C@]3(C)C(=C(c4cn[nH]c4)CC4[C@@]5(C)Cc6c(n[nH]c6N)C(C)(C)[C@@H]5CC[C@]43C)[C@@H]2C1` (stereo partly drawn) [Compound 27, (4aS,6aS,6bR,8aR,13aR,15bS)-12-Amino-2,2,6a,6b,9,9,13a-heptamethyl-15-(1H-pyrazol-4-yl)-2,3,4,4a,5,6,6a,6b,7,8,8a,9,11,13,13a,13b,14,15b-octadecahydro-1 H-chryseno[1,2-f]indazole-4a-carboxylic acid]: the IC85 in the assay on P. aeruginosa (setting [1]) was 1 µg/mL (≈ 1.79 µM); in the assay on E. coli (setting [2]), above 2 µg/mL.
In the case of `CC1(C)CC[C@]2(C(=O)Nc3cc(O)[nH]n3)CC[C@]3(C)C(=CCC4[C@@]5(C)Cc6c(n[nH]c6N)C(C)(C)C5CC[C@]43C)C2C1` (stereo partly drawn) [Compound 66, (4aS,6aS,6bR,13aR)-12-Amino-N-(5-hydroxy-1H-pyrazol-3-yl)-2,2,6a,6b,9,9,13a-heptamethyl-2,3,4,4a,5,6,6a,6b,7,8,8a,9,11,13,13a,13b, 14,15b-octadecahydro-1H-chryseno[1,2-f]indazole-4a-carboxamide], the IC85 is 0.25 µg/mL (≈ 0.435 µM) in the assay on P. aeruginosa (setting [5]) and 1 µg/mL (≈ 1.74 µM) in the assay on E. coli (setting [6]).
In the case of `CN(C)CCc1c([C@]23CCC(C)(C)CC2C2=CCC4[C@@]5(C)Cc6c(n[nH]c6N)C(C)(C)C5CC[C@@]4(C)[C@]2(C)CC3)n[nH]c1O` (stereo partly drawn) [Compound 85, 3-((4aS,6aS,6bR,13aR)-12-Amino-2,2,6a,6b,9,9,13a-heptamethyl-2,3,4,4a,5,6,6a,6b,7,8,8a,9,11,13,13a,13b,14,15b-octadecahydro-1H-chryseno[1,2-f]indazol-4a-yl)-4-(2-(dimethylamino)ethyl)-1H-pyrazol-5-ol], the IC85 was 0.5 µg/mL (≈ 0.829 µM) in the assay with P. aeruginosa (setting [5]) and 1 µg/mL (≈ 1.66 µM) in the assay on E. coli (setting [6]).
For `CC1(C)CC[C@]2(C(=O)O)CC[C@]3(C)C(=C(Br)CC4[C@@]5(C)Cc6c(n[nH]c6N)C(C)(C)[C@@H]5CC[C@]43C)[C@@H]2C1` (stereo partly drawn) [Compound 25, (4aS,6aS,6bR,8aR,13aR,15bR)-12-Amino-15-bromo-2,2,6a,6b,9,9,13a-heptamethyl-2,3,4,4a,5,6,6a,6b,7,8,8a,9,11,13,13a,13b,14,15b-octadecahydro-1H-chryseno[1,2-f]indazole-4a-carboxylic acid], the IC85 was 0.5 µg/mL (≈ 0.873 µM) with P. aeruginosa (setting [1]) and above 2 µg/mL in the assay with E. coli (setting [2]).
Take `Cn1cc2c(n1)C(C)(C)C1CC[C@]3(C)C(CC=C4C5CC(C)(C)CC[C@]5(C(=O)O)CC[C@]43C)[C@@]1(C)C2` (stereo partly shown) [E]: the IC85 in the assay on P. aeruginosa (setting [3]) was 2 µg/mL (≈ 4.06 µM); in the assay with E. coli (setting [4]), above 16 µg/mL.
Consider `CC1(C)CC[C@]2(C(=O)O)CC[C@]3(C)C(=C(c4cc[nH]c4)CC4[C@@]5(C)Cc6c(n[nH]c6N)C(C)(C)[C@@H]5CC[C@]43C)[C@@H]2C1` (stereo partly drawn) [Compound 6, (4aS,6aS,6bR,8aR,13aR,15bS)-12-Amino-2,2,6a,6b,9,9,13a-heptamethyl-15-(1H-pyrrol-3-yl)-2,3,4,4a,5,6,6a,6b,7,8,8a,9,11,13,13a,13b,14,15b-octadecahydro-1H-chryseno[1,2-f]indazole-4a-carboxylic acid], for which the IC85 in the assay on E. coli (Table 2, concentration that reduces the area of the spreading biofilm by >= 85%) was 0.25 µg/mL (≈ 0.447 µM).
Turning to `C[C@H]1[C@H](C)CC[C@]2(C)CC[C@]3(C)C(=CC[C@@H]4[C@@]5(C)CC[C@H](O)C(C)(C)[C@@H]5CC[C@]43C)[C@H]12` [alpha-Amyrin, reference compound], in the assay with P. aeruginosa (setting [4]), the “P. aeruginosa” value is above 32 µg/mL.
Regarding `C[C@H]1[C@H](C)CC[C@]2(C(=O)O)CC[C@]3(C)C(=CC[C@@H]4[C@@]5(C)C[C@@H](O)[C@H](O)C(C)(C)[C@@H]5CC[C@]43C)[C@H]12` [Corosolic acid, reference compound], the IC85 in the assay with P. aeruginosa (setting [3]) came to 4 µg/mL (≈ 8.46 µM).
In the case of `CC1(C)CC[C@]2(C(=O)O)CC[C@]3(C)C(=CC[C@@H]4[C@@]5(C)C[C@@H](O)[C@H](O)C(C)(C)[C@@H]5CC[C@]43C)[C@@H]2C1` [Maslinic acid, reference compound], the IC85 in the assay on P. aeruginosa (read-out: P. aeruginosa (µg/ml)) worked out at 4 µg/mL (≈ 8.46 µM).

Values taken from patent EP2712863B1, “Novel inhibitors of bacterial biofilms and related methods” (Sequoia Sciences, Inc., priority 2012, dated 2014).
